According to patent US20240083908A1, “TETRAHYDROTHIENOPYRIMIDINESULFONAMIDE COMPOUNDS” (priority 2020, published 2024):
pIC50: −log10 of the molar value.

Experiments:
human recombinant PARG = human recombinant PARG (Homo sapiens (Human), UniProt Q86W56); assay: PARG Activity Assay; assay type: biochemical; settings: recombinant human PARG 0.0185 nM, 1 hour pre-incubation, poly (ADP-ribose) substrate-coated plate, Abs 450
Procedure: In order to evaluate the PARG inhibitory activity of the present compound, the inhibitory activity of each test compound against human recombinant PARG was measured. The specific procedure is described below.
Test compound was dissolved in dimethyl sulfoxide and prepared a 10 mM stock solution.
PARG Activity Assay was performed in Streptavidin-coated 96-well plates. […] The substrate solution was added to the 96-well plate at the volume of 200 micro liter per well and incubated for 3 hours at room temperature. After the incubation, the substrate solution was discarded and assay plate was washed 4 times with 220 micro liter of PBS containing 0.1% Tween20 (PBST). […] The diluted enzyme solution was pre-incubated with compounds for 1 hour at room temperature in a 96-well plate and transferred 100 micro liter per well to the poly (ADP-ribose) substrate-coated assay plate. The plate was incubated for 1 hour at 25° C. and then washed 4 times with 220 micro liters of PBST. For the detection of non-digested poly (ADP-ribose) polymer on the plate, mouse anti-poly (ADP-ribose) antibody diluted with 0.2% BSA containing PBS was added 100 micro liters per well and incubated 1 hour at room temperature. Plate was washed 4 times with TBST and 100 micro liter of HRP-labeled anti-mouse Ig antibody was added to the wells. Plate was incubated for 30 minutes at room temperature and then washed 4 times with PBST. For the detection 100 micro liters of TMB substrate solution was added to the wells. After sufficient color development, reaction was stopped by addition of 50 micro liter of 0.2 M […]. The 450 nm absorbance (Abs 450) of each well was read with a micro plate reader. The assay was performed by duplicated and average of 2 independent assays were used for the determination of PARG inhibitor y activity.
Wells treated with dimethyl sulfoxide instead of test compound solution were designated as a Negative Control of assay
Wells treated with 0.2% BSA containing PBS instead of recombinant human PARG protein and with dimethyl sulfoxide instead of test compound solution were designated as a Positive Control of assay.
The PARG Inhibitory Activity (%) was determined by the following formulation.
PARG Inhibitory Activity (%)=[(AbsX−AbsA)/(AbsB−AbsA)]×100
(wherein, • AbsA is absorbance (Abs 450) of Negative Control wells • AbsB is absorbance (Abs 450) of Positive Control wells • AbsX is absorbance (Abs 450) of wells treated with test compound.)
In Table, Ex indicates an Example number shown below.

Kuramochi cells = assay: Synthetic Lethality Assay of Cancer Cell; assay type: cell-based; settings: Homo sapiens; growth inhibition of Kuramochi cells in the presence of methyl methanesulfonate (MMS), 96 hours, CellTiter-Glo
Procedure: In order to evaluate the cancer cell growth inhibitory effect of the present compound, the inhibitory effect of the compound on the growth of a human ovarian cancer cell line, Kuramochi cells, was examined in the presence of methyl methanesulfonate (MMS) which is used as a DNA methylating agent.
Test compound was dissolved in dimethyl sulfoxide and prepared a 10 mM compound solution. The compound solution was then further serially diluted with dimethyl sulfoxide to prepare a concentration of 400 times test compound solution from 6 mM to 1 μM.
Kuramochi cells were purchased from the JCRB cell bank and cultured at 37° C. in the presence of 5% of CO2 using the complete medium described above. […]
Cell viability after 96 hours was measured by using CellTiter-Glo (registered trademark) Luminescent Cell Viability Assay (manufactured by Promega Corporation) according to the recommended usage.
The luminescence intensity was measured by using a luminescence detection plate reader (Envision, manufactured by PerkinElmer Inc.). The cell viability of each well was calculated as a relative value (%) of the luminescence intensity of each well to which each test compound with each concentration was added in a case where the luminescence intensity of a well to which dimethyl sulfoxide was added instead of the test compound was defined as 100%. […]

human recombinant PARG, sequence (Q86W56 whole entry): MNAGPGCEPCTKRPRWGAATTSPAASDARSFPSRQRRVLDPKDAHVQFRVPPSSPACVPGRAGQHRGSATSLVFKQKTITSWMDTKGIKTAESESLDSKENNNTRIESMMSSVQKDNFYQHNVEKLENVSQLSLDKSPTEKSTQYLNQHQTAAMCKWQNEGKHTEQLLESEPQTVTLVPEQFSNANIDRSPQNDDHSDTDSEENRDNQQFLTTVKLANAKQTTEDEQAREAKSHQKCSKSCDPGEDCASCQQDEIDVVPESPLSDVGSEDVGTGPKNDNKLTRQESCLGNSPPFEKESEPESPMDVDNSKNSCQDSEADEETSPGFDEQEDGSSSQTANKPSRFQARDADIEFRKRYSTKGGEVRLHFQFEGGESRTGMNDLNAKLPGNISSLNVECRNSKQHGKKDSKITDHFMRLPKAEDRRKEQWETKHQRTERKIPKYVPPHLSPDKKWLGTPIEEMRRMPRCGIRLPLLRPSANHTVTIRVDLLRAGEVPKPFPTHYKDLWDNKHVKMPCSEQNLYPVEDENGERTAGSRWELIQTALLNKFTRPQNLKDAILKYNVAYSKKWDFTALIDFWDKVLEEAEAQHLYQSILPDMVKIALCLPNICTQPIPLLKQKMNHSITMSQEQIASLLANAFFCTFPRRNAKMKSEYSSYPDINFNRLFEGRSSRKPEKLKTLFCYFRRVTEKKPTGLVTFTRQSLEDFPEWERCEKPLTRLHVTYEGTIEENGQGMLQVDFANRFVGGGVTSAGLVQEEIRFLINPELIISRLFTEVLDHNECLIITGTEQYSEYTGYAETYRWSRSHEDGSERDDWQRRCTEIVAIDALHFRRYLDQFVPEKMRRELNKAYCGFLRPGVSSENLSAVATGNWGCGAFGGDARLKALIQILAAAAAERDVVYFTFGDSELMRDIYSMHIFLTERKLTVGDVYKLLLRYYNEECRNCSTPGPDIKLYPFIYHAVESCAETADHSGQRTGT

Structure (SMILES)	pIC50 (human recombinant PARG)	pIC50 (Kuramochi cells)
Cn1cc(Cn2c(=O)c3cc(S(=O)(=O)NC4(C)CC4)sc3n(Cc3ccc(N4CCCC4)nc3)c2=O)cn1 [Ex 82]	7.01	
Cn1cc(Cn2c(=O)c3cc(S(=O)(=O)NC4(C)CC4)sc3n(Cc3ccc(N4CC[C@H](O)C4)nc3)c2=O)cn1 [Ex 83]	6.96	
CO[C@H]1CCN(c2ccc(Cn3c(=O)n(Cc4cnn(C)c4)c(=O)c4cc(S(=O)(=O)NC5(C)CC5)sc43)cn2)C1 [Ex 84]	6.70	
Cn1cc(Cn2c(=O)c3cc(S(=O)(=O)NC4(C)CC4)sc3n(Cc3ccn(C)c(=O)c3)c2=O)cn1 [Ex 85]	6.96	
CC(=O)N1CCC(Cn2c(=O)n(Cc3cnn(C)c3)c(=O)c3cc(S(=O)(=O)NC4(C)CC4)sc32)CC1 [Ex 86]	6.80	
CN1CCC(Cn2c(=O)n(Cc3cnn(C)c3)c(=O)c3cc(S(=O)(=O)NC4(C)CC4)sc32)CC1=O (stereo not drawn) [Ex 87]	6.66	
Cn1cc(Cn2c(=O)c3cc(S(=O)(=O)NC4(C)CC4)sc3n(Cc3ccc(=O)n(C)c3)c2=O)cn1 [Ex 88]	7.64	
COCc1cc2cc(Cn3c(=O)n(Cc4cnn(C)c4)c(=O)c4cc(S(=O)(=O)NC5(C)CC5)sc43)ccc2[nH]1 [Ex 89]	7.89	
Cn1cc(Cn2c(=O)c3cc(S(=O)(=O)NC4(C)CC4)sc3n(Cc3ccc(N4CC(O)C4)nc3)c2=O)cn1 [Ex 90]	7.77	
CCC(=O)N1CCC(n2c(=O)n(Cc3cnn(C)c3)c(=O)c3cc(S(=O)(=O)NC4(C)CC4)sc32)CC1 [Ex 93]	6.74	
COCCC(=O)N1CCC(n2c(=O)n(Cc3cnn(C)c3)c(=O)c3cc(S(=O)(=O)NC4(C)CC4)sc32)CC1 [Ex 94]	6.57	
CNCCCC(=O)N1CCC(n2c(=O)n(Cc3cnn(C)c3)c(=O)c3cc(S(=O)(=O)NC4(C)CC4)sc32)CC1 [Ex 96]	6.89	
Cc1nc(C)c(Cn2c(=O)n(Cc3cnn(C)c3)c(=O)c3cc(S(=O)(=O)NC4(C#N)CC4)sc32)s1 [Ex 101]	7.19	
Cn1cc(Cn2c(=O)c3cc(S(=O)(=O)NC4(C#N)CC4)sc3n(Cc3ccc4oc(CO)cc4c3)c2=O)cn1 [Ex 102]	7.12	
Cn1cc(Cn2c(=O)c3cc(S(=O)(=O)NC4(C#N)CC4)sc3n(Cc3ccc(F)cc3)c2=O)cn1 [Ex 103]	6.96	
Cn1cc(Cn2c(=O)c3cc(S(=O)(=O)NC4(C)CC4)sc3n(Cc3ccc4c(n3)COC4)c2=O)cn1 [Ex 109]	7.35	
CC(c1ccc2c(c1)COC2)n1c(=O)n(Cc2cnn(C)c2)c(=O)c2cc(S(=O)(=O)NC3(C)CC3)sc21 (stereo not drawn) [Ex 112]	6.85	
Cc1cc2c(cc1Cn1c(=O)n(Cc3cnn(C)c3)c(=O)c3cc(S(=O)(=O)NC4(C)CC4)sc31)COC2 [Ex 113]	7.03	
Cc1cc(Cn2c(=O)n(Cc3cnn(C)c3)c(=O)c3cc(S(=O)(=O)NC4(C)CC4)sc32)cc2c1COC2 [Ex 114]	7.47	
Cc1c(Cn2c(=O)n(Cc3cnn(C)c3)c(=O)c3cc(S(=O)(=O)NC4(C)CC4)sc32)ccc2c1COC2 [Ex 115]	7.17	

Structure (SMILES)	pIC50 (human recombinant PARG)	pIC50 (Kuramochi cells)
Cn1cc(Cn2c(=O)c3cc(S(=O)(=O)NC4(C)CC4)sc3n(Cc3ccc4[nH]c(CO)cc4c3)c2=O)cn1 [Ex 116]	7.82	
Cn1cc(Cn2c(=O)c3cc(S(=O)(=O)NC4(C)CC4)sc3n(Cc3cncc(CO)c3)c2=O)cn1 [Ex 117]	7.39	
CN1CCc2ccc(Cn3c(=O)n(Cc4cnn(C)c4)c(=O)c4cc(S(=O)(=O)NC5(C)CC5)sc43)cc2C1=O [Ex 118]	6.92	
Cn1cc(Cn2c(=O)c3cc(S(=O)(=O)NC4(C)CC4)sc3n(CC34CC(F)(C3)C4)c2=O)cn1 [Ex 119]	6.62	
Cn1cc(Cn2c(=O)c3cc(S(=O)(=O)NC4(C)CC4)sc3n(CCC3(C)COC3)c2=O)cn1 [Ex 120]	6.92	
Cn1cc(Cn2c(=O)c3cc(S(=O)(=O)NC4(C)CC4)sc3n(Cc3ccc(F)c(OCCO)c3)c2=O)cn1 [Ex 122]	7.77	
COc1c(F)cc(Cn2c(=O)n(Cc3cnn(C)c3)c(=O)c3cc(S(=O)(=O)NC4(C)CC4)sc32)cc1F [Ex 123]	7.54	
CNc1cc(Cn2c(=O)n(Cc3cnn(C)c3)c(=O)c3cc(S(=O)(=O)NC4(C)CC4)sc32)c(F)cc1F [Ex 124]	7.14	
CNc1c(F)cc(Cn2c(=O)n(Cc3cnn(C)c3)c(=O)c3cc(S(=O)(=O)NC4(C)CC4)sc32)cc1F [Ex 125]	7.70	
COC(=O)c1cc(Cn2c(=O)n(Cc3cnn(C)c3)c(=O)c3cc(S(=O)(=O)NC4(C)CC4)sc32)ccc1F [Ex 126]	7.35	
Cn1cc(Cn2c(=O)c3cc(S(=O)(=O)NC4(C)CC4)sc3n(Cc3ccc(F)c(C(=O)N4CCN(C(=O)C5CC5)CC4)c3)c2=O)cn1 [Ex 127]	6.49	
Cn1cc(Cn2c(=O)c3cc(S(=O)(=O)NC4(C)CC4)sc3n(Cc3ccc(Oc4ccc(F)cc4)nc3)c2=O)cn1 [Ex 128]	6.89	
Cn1cc(Cn2c(=O)c3cc(S(=O)(=O)NC4(C)CC4)sc3n(Cc3nc4c(s3)CCCC4)c2=O)cn1 [Ex 129]	7.34	
Cn1cc(Cn2c(=O)c3cc(S(=O)(=O)NC4(C)CC4)sc3n(Cc3ccc4c(c3)CC(=O)N4)c2=O)cn1 [Ex 130, 3-((1-Methyl-1H-pyrazol-4-yl)methyl)-N-(1-methylcyclopropyl)-2,4-dioxo-1-((2-oxoindolin-5-yl)methyl)-1,2,3,4-tetrahydrothieno[2,3-d]pyrimidine-6-sulfonamide]		4.93
Cn1cc(Cn2c(=O)c3cc(S(=O)(=O)NC4(C)CC4)sc3n(Cc3ccc4c(c3)NC(=O)C4)c2=O)cn1 [Ex 131]	8.20	
Cn1cc(Cn2c(=O)c3cc(S(=O)(=O)NC4(C)CC4)sc3n(CCc3ccccc3)c2=O)cn1 [Ex 132]	6.18	
COc1c(C)cnc(Cn2c(=O)n(Cc3cnn(C)c3)c(=O)c3cc(S(=O)(=O)NC4(C)CC4)sc32)c1C [Ex 133]	5.93	
Cc1c[nH]c(Cn2c(=O)n(Cc3cnn(C)c3)c(=O)c3cc(S(=O)(=O)NC4(C)CC4)sc32)c(C)c1=O [Ex 134]	5.22	
Cc1cc(Cn2c(=O)n(Cc3cnn(C)c3)c(=O)c3cc(S(=O)(=O)NC4(C)CC4)sc32)ccc1F [Ex 135]	7.43	
